From US20080045605A1, “Image Quality in the Eye” (priority 2004, published 2008)

Test system: human eye
Experiment: higher-order wavefront aberrations (rms) measured with a wavefront analyzer in subjects treated for 6 months
Assay type: in vivo
Conditions: human subjects treated for 6 months; 20 mg/day zeaxanthin (Z), 20 mg/day lutein (L), or 10 mg lutein+10 mg zeaxanthin per day (C, P-C); versus placebo; FIG. 1
Source text: The wavefront aberration function is a way of quantifying the imperfections of the optics of the eye that cause degradation of retinal image quality. The “ideal” wavefront is generated when a “point” on the retina is imaged through the optics of the eye as a plane and flat surface just outside the eye. This means that all the rays emerging from the eye form a parallel bundle and are perpendicular to this plane. The “real” wavefront surface is not a perfect two-dimensional plane and reflects the aberrations present in the optical system. It is usually represented mathematically by a series of terms known as Zernike polynomials. A knowledge of the coefficients of the Zernike polynomials provides a complete description of the wavefront surface. In order to obtain one single number that describes the quality of the imaging system (in this case the human eye) the root mean square (rms) deviation is calculated by computing the root of the mean of the squares of the actual deviations from the ideal plane. The rms value is equivalent to a standard deviation, but the two functions compared are 2D surfaces (i.e., the ideal wavefront and the actual wavefront). The wavefront aberrations are measured with a wavefront analyzer (see, e.g., J. Refract. Surg. 2001; 17(5), S608-S612). […]

Structure (SMILES)	higher-order wavefront aberrations in the human eye
CC1=C[C@H](O)CC(C)(C)[C@H]1/C=C/C(C)=C/C=C/C(C)=C/C=C/C=C(C)/C=C/C=C(C)/C=C/C1=C(C)C[C@@H](O)CC1(C)C [lutein]	reduction of higher-order wavefront aberrations
CC1=C(/C=C/C(C)=C/C=C/C(C)=C/C=C/C=C(C)/C=C/C=C(C)/C=C/C2=C(C)C[C@@H](O)CC2(C)C)C(C)(C)C[C@H](O)C1 [zeaxanthin]	reduction of higher-order wavefront aberrations
